Key:
IPEC-J2 cells = test: DCFH-DA intracellular ROS assay in IPEC-J2 cells; assay type: cell-based, porcine; conditions: 50 and 100 μM, 24 h
Method: The cell line used for the experiments was the IPEC-J2 from the jejunum of porcine. The IPEC-J2 epithelial cell line was a kind gift from Dr. Jody Gookin (Department of Clinical Sciences, College of Veterinary Medicine, North Carolina State University, Raleigh, NC, USA). The cell monolayers were maintained in 75 cm^2 cell culture flasks with filtered caps (Orange Scientific, Braine-l’Alleud, Belgium) at 37 °C in a humidified atmosphere containing 5% CO2. The culture medium contained 50% Dulbecco’s modified Eagle’s medium (DMEM) and 50% Ham’s F12 Nutrient Mixture (Merck, Darmstadt, Germany) supplemented with 1.5 mmol/L HEPES, 5% fetal bovine serum (FBS) (Biocenter, Budapest, Hungary), 1% insulin/transferrin/sodium selenite medium supplement, 5 ng/mL epidermal growth factor (EGF), and 1% penicillin/streptomycin (all purchased from Invitrogen, Thermo Fisher Scientific, Waltham, MA, USA). Cells were used between passages 40 and 55. […]
The ability of inhibitors MI-1851 and MI-2415 to induce oxidative stress (ROS) within IPEC-J2 as well as of compound MI-2415 within PHHs was investigated with 2,7-dichloro-dihydro-fluorescein diacetate (DCFH2-DA). […] A Victor X2 2030 (Perkin Elmer, Waltham, MA, USA) was used to determine the fluorescence values of the samples (excitation wavelength: 485 nm, emission wavelength: 535 nm), which are directly proportional to the ROS generation.

CYP3A4 = CYP3A4 (Homo sapiens, UniProt P08684); set-up: method as in PMID 35594709; conditions: PHH, previous studies; cited from earlier work
CYP3A4, sequence (P08684 whole entry): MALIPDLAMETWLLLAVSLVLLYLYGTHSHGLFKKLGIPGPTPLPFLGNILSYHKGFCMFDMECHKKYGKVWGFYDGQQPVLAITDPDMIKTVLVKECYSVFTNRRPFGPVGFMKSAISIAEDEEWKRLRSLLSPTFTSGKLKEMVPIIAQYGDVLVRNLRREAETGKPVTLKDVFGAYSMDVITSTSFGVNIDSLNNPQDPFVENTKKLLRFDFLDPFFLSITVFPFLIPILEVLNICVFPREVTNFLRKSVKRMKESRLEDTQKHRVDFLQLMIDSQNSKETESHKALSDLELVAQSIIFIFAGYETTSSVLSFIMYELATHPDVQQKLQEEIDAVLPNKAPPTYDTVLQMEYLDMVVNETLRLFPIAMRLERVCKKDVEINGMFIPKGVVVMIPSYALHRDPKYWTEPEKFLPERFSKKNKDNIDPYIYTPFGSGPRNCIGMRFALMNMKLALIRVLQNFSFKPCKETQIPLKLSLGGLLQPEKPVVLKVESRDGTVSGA

[1] = system: primary human hepatocytes (PHH); set-up: method as in PMID 35594709; conditions: PHHs; cited from earlier work
[2] = system: human airway Calu-3 cells; conditions: cited from earlier work
Pseudomonas aeruginosa = test: viability (CCK-8) of MDCK cells challenged with Pseudomonas aeruginosa; assay type: cell-based; conditions: P. aeruginosa 10^6 CFU/mL, 5 h, inhibitor 2 h prior and during, tested 0.5-100 µM
Method: MDCK NBL-2 cells were obtained from Cytion (formerly: CLS Cell Lines Service, Eppenheim, Germany). Cells were grown in T-75 cell culture flasks, using Dulbecco’s Modified Eagle’s Medium (DMEM, Capricorn Scientific, Ebsdorfergrund, Germany) supplemented with 5% foetal bovine serum (FBS, Capricorn) and antibiotic–antimycotic solution (penicillin, streptomycin, amphotericin B; Merck, Darmstadt, Germany). The cells were subcultured and seeded in wells of 96-well microtiter plates one day prior to the experiments. After 24 h, near 100% confluence was recorded in the wells. The growth and incubation of MDCK cells were carried out in a humidified incubator at 37 °C and in the presence of 5% CO2. […] Three times single colonies from ten different blood agar plates were dissolved in 5 mL of distilled water, and colony-forming units (CFU) were counted after their serial dilution and overnight incubation on non-selective blood agar at 37 °C. […] The count of Pseudomonas aeruginosa from inoculating vials was also assessed and was in good accordance with our count prediction. […] Following the addition of the final reagent (100 µL fresh Williams’ Medium E) and a 2 h incubation period, the absorbance was measured at 450 nm using a SpectraMax iD3 (Molecular Devices, San José, CA, USA).

[3] = system: primary human hepatocytes (PHH); test: CCK-8 cytotoxicity assay in primary human hepatocytes; assay type: cell-based; conditions: 50 µM and 100 µM, 24 h
Method: PHHs were purchased from Primacyt Cell Culture Technology GmbH (Schwerin, Germany). Hepatocytes were thawed using hepatocyte recovery medium (Primacyt, Schwerin, Germany) and cells were centrifuged (10 min, 100× g, 20 °C) to remove supernatants. Cells were incubated with 5% FBS-containing plating medium for 6 h, then with FBS-free maintenance medium at 37 °C with 5% CO2 (both media were obtained from Primacyt, Schwerin, Germany) on Matrigel-coated membrane inserts (Costar Transwell-COL PTFE permeable supports, 6.5 mm inserts, 0.4 µm pore size, 24-well plate, Corning Incorporated, Kennebunk, ME, USA) for the CCK-8 and Amplex Red procedures. Maintenance medium without FBS was replaced every 24 h and the cells were incubated.
The possible cytotoxic effects of the inhibitors MI-1851 and MI-2415 (structures provided in Figure 1) in different concentrations on IPEC-J2 and those of inhibitor MI-2415 on PHHs were assessed for 24 h by performing the CCK-8 assay (Dojindo Molecular Technologies, Rockville, MD, USA). […] Following three times washing of the wells with PBS, 10 µL CCK-8 reagent mixed with 100 µL fresh Williams’ Medium E was added and the absorbance values were measured at 450 nm using the SpectraMax iD3 microplate reader (Molecular Devices, San José, CA, USA) after 2 h incubation. […]

| SMILES | intracellular ROS levels in IPEC-J2 cells (IPEC-J2 cells) | concentration at which significant inhibition of CYP3A4 was already observed (CYP3A4) [µM] | non-cytotoxic concentration [1] | non-cytotoxic concentration [2] | concentration with antipseudomonal effect (preserved MDCK cell viability) (Pseudomonas aeruginosa) [µM] | cell death in PHHs [3] |
| --- | --- | --- | --- | --- | --- | --- |
| CC(C)(C)[C@H](NC(=O)[C@H](CCONC(=N)N)NC(=O)Cc1ccc(CNC(=N)N)cc1)C(=O)N[C@@H](CCONC(=N)N)C(=O)NCc1ccc(C(=N)N)cc1 [MI-1851] | no significant alterations in intracellular ROS levels | 20 | up to 100 µM | up to 50 µM | 0.5 | – |
| CC(C)(C)[C@H](NC(=O)[C@H](CCONC(=N)N)NC(=O)Cc1ccc(CNC(=N)N)cc1)C(=O)N[C@@H](CCONC(=N)N)C(=O)NCc1ccc2c(c1)CN=C2N [MI-2415] | no significant alterations in intracellular ROS levels | – | – | – | ≥ 25 | did not lead to significant cell death |

From publication PMC11444200, “In Vitro Evaluation of Antipseudomonal Activity and Safety Profile of Peptidomimetic Furin Inhibitors” (Biomedicines, 2024)
